# Reference: patent US8957070B2, “Glucokinase activator compounds, methods of activating glucokinase and methods of treating diabetes and obesity” (Takeda Pharmaceutical Company Limited, priority 2005, dated 2015)
# Target: T1, GST-hLGK1 (human liver type GK) (Homo sapiens, UniProt P35557)
# T1 construct: with a BamHI site added to immediately before the initiation codon; made in house; host or cells: Escherichia coli BL21
# T1 sequence (P35557 1-464 isoform P35557-3): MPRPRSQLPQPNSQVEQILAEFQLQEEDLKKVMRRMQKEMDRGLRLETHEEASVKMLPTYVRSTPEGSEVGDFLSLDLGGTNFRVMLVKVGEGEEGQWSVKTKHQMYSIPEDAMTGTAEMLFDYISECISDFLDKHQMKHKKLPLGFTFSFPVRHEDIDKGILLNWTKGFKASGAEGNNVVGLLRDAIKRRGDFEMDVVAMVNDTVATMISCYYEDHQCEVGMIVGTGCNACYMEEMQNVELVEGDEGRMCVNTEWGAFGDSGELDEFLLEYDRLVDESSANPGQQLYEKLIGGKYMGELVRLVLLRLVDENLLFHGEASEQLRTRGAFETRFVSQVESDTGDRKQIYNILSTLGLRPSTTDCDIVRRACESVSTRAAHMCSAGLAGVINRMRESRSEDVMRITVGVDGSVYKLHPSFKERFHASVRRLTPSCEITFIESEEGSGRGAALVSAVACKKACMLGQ
# Experiment: Determination of GK activity value (Mant-ATP conversion, capillary electrophoresis)
# Format: biochemical
# Settings: concentration necessary for activating 50% of the maximum GK activity value, 37° C., 60 min, D-glucose added
# Experimental: A solution (5 μL) of test compound in 50% dimethyl sulfoxide was added to each well of 384 well black plate (Nalge Nunc International K.K.). Then, a solution (35 μL) obtained by diluting GST-hLGK1 obtained in Reference Example 2A with measurement buffer (containing 50 mM HEPES (pH 7.4), 200 mM KCl, 5 mM MgCl2, 2.5 mM DTT and 50 μM 2′-(or -3′)-O—(N-methylanthraniloyl)adenosine 5′-triphosphate (Mant-ATP) (Jena Bioscience GmbH)) to 6 μg/mL was added to each well.
# Each well was stood at 37° C. for 10 min, and 25 mM D-glucose solution (10 μL) was added to start the reaction.
# Each well after the reaction was stood at 37° C. for 60 min, and the reaction was quenched by adding 25 μL of a quenching solution (containing 200 mM HEPES (pH 7.4), 20 mM MgCl2, 200 mM EDTA, 0.03% Triton-X 100, 0.3% Coating 3 reagent (Caliper Life Sciences, Inc.)).
# Mant-ATP (substrate) and Mant-ADP (reaction resultant product) were separated from each well after the reaction by a microchip type capillary electrophoresis apparatus 250 HTS (Caliper Life Sciences, Inc.). The reaction rate [(reaction resultant product peak height)/(reaction resultant product peak height+substrate peak height)×100(%)] was calculated from the ratio of the substrate peak height and reaction resultant product peak height obtained by fluorescence detection (excitation wavelength 355 nm, measurement wavelength 460 nm) and used as the index of GK activity.
# As a control group, the reaction rate was calculated in the same manner as above except that “solution in 50% dimethyl sulfoxide” was used instead of “solution of test compound in 50% dimethyl sulfoxide”.
# The percentage obtained by dividing the reaction rate of the well added with the test compound (test compound addition group) by the reaction rate of the well added with 50% solution in dimethyl sulfoxide alone (control group) was taken as the GK activity value of the test compound, and the concentration of the test compound necessary for activating 50% of the maximum value of the activity value is shown as EC50 value.
row,EC50 [nM],Compound
1,35,"CCN(c1cccc2cc(-c3ncc(COc4ccc(C(=O)O)cc4)s3)[nH]c12)S(=O)(=O)c1cccs1 [Example 280, 4-[(2-{7-[ethyl(2-thienylsulfonyl)amino]-1H-indol-2-yl}-1,3-thiazol-5-yl)methoxy]benzoic acid]"
2,22,"CN(c1cc(OC(F)(F)F)cc2cc(C3=NCCS3)[nH]c12)S(=O)(=O)c1cccs1 [Example 169, N-[2-(4,5-dihydro-1,3-thiazol-2-yl)-5-(trifluoromethoxy)-1H-indol-7-yl]-N-methylthiophene-2-sulfonamide]"
3,180,"CN(c1cccc2cc(-c3ncc(CN4CCOCC4)s3)[nH]c12)S(=O)(=O)c1cccs1 [Example 146, N-Methyl-N-{2-[5-(morpholin-4-ylmethyl)-1,3-thiazol-2-yl]-1H-indol-7-yl}thiophene-2-sulfonamide]"
4,28,"CN(c1cc(F)cc2cc(C3=NCCS3)[nH]c12)S(=O)(=O)c1cccs1 [Example 165, N-[2-(4,5-dihydro-1,3-thiazol-2-yl)-5-fluoro-1H-indol-7-yl]-N-methylthiophene-2-sulfonamide]"
5,19,"CN(c1ccc(Cl)c2cc(-c3ncc(CO)s3)[nH]c12)S(=O)(=O)c1cccs1 [Example 261, N-{4-chloro-2-[5-(hydroxymethyl)-1,3-thiazol-2-yl]-1H-indol-7-yl}-N-methylthiophene-2-sulfonamide]"
6,510,"CN(c1cccc2cc(-c3nccs3)[nH]c12)S(=O)(=O)c1nccn1C [Example 209, N,1-Dimethyl-N-[2-(1,3-thiazol-2-yl)-1H-indol-7-yl]-1H-imidazole-2-sulfonamide]"
7,80,"CN(c1cccc2cc(-c3ncc(CCC#N)s3)[nH]c12)S(=O)(=O)c1cccs1 [Example 151, N-{2-[5-(2-Cyanoethyl)-1,3-thiazol-2-yl]-1H-indol-7-yl}-N-methylthiophene-2-sulfonamide]"

# The next lines start with the compound.
row,Compound,EC50 [nM]
1,"O=C1CCCc2c1[nH]c1c(NS(=O)(=O)c3cccs3)cccc21 [Example 11, N-(1-Oxo-2,3,4,9-tetrahydro-1H-carbazol-8-yl) thiophene-2-sulfonamide]",1400
2,"CCCSc1ccc(NS(=O)(=O)c2cccs2)c2[nH]c(C(=O)OCC)cc12 [Example 65, Ethyl 4-(propylthio)-7-[(2-thienylsulfonyl)amino]-1H-indole-2-carboxylate]",390
3,"O=S(=O)(Nc1cccc2cc(C3=NCCS3)[nH]c12)c1cccs1 [Example 3, N-[2-(4,5-dihydro-1,3-thiazol-2-yl)-1H-indol-7-yl]thiophene-2-sulfonamide]",110
4,"Cc1c(C2=NCCS2)[nH]c2c(NS(=O)(=O)c3cccs3)cccc12 [Example 26, N-[2-(4,5-Dihydro-1,3-thiazol-2-yl)-3-methyl-1H-indol-7-yl]thiophene-2-sulfonamide]",1700
5,"O=S(=O)(Nc1cccc2cc(-c3ncon3)[nH]c12)c1cccs1 [Example 17, N-[2-(1,2,4-Oxadiazol-3-yl)-1H-indol-7-yl]thiophene-2-sulfonamide]",4800
6,"O=S(=O)(Nc1cccc2cc(-c3ccccn3)[nH]c12)c1cccs1 [Example 8, N-[2-(Pyridin-2-yl)-1H-indol-7-yl]thiophene-2-sulfonamide]",1500
7,"CCN(c1cccc2cc(C3=NCCS3)[nH]c12)S(=O)(=O)c1cccs1 [Example 104, N-[2-(4,5-Dihydro-1,3-thiazol-2-yl)-1H-indol-7-yl]-N-ethylthiophene-2-sulfonamide]",34
8,"O=S(=O)(Nc1cccc2cc(C3=NCCO3)[nH]c12)c1cccs1 [Example 5, N-[2-(4,5-Dihydro-1,3-oxazol-2-yl)-1H-indol-7-yl]thiophene-2-sulfonamide]",1200
9,"Cc1cc(NS(=O)(=O)c2cccs2)c2[nH]c3c(c2c1)CCNC3=O [Example 52, N-(6-Methyl-1-oxo-2,3,4,9-tetrahydro-1H-β-carbolin-8-yl)thiophene-2-sulfonamide]",2000
10,"CCOC(=O)Cc1cnc(-c2cc3cccc(N(C)S(=O)(=O)c4cccs4)c3[nH]2)s1 [Example 137, Ethyl (2-{7-[methyl(2-thienylsulfonyl)amino]-1H-indol-2-yl}-1,3-thiazol-5-yl)acetate]",48
11,"O=S(=O)(Nc1cccc2cc(-c3nccs3)[nH]c12)c1cccs1 [Example 7, N-[2-(1,3-Thiazol-2-yl)-1H-indol-7-yl]thiophene-2-sulfonamide]",240
12,"CN(c1cccc2cc(-c3nccs3)[nH]c12)S(=O)(=O)c1cccs1 [Example 97, N-Methyl-N-[2-(1,3-thiazol-2-yl)-1H-indol-7-yl]thiophene-2-sulfonamide]",77
13,"CN(c1cccc2cc(C3=NCCS3)[nH]c12)S(=O)(=O)c1cccs1 [Example 86, N-[2-(4,5-Dihydro-1,3-thiazol-2-yl)-1H-indol-7-yl]-N-methylthiophene-2-sulfonamide]",27
14,"CCOC(=O)c1[nH]c2c(NS(=O)(=O)c3cccs3)cccc2c1C [Example 23, Ethyl 3-methyl-7-[(2-thienylsulfonyl)amino]-1H-indole-2-carboxylate]",2700

# System: not given
# Experiment: not given
# Settings: not given
row,melting point [°C],Compound
1,161 to 162,"Cc1nc(-c2cc3cccc(N(C)S(=O)(=O)c4cccs4)c3[nH]2)cs1 [Example 173, N-Methyl-N-[2-(2-methyl-1,3-thiazol-4-yl)-1H-indol-7-yl]thiophene-2-sulfonamide]"
2,223 to 225,"Cc1ccc(N(C)S(=O)(=O)c2cccs2)c2[nH]c(C(=O)O)cc12 [Example 175, 4-Methyl-7-[methyl (2-thienylsulfonyl)amino]-1H-indole-2-carboxylic acid]"
3,162 to 163,"CNc1nc(-c2cc3cccc(N(C)S(=O)(=O)c4cccs4)c3[nH]2)cs1 [Example 174, N-Methyl-N-{2-[2-(methylamino)-1,3-thiazol-4-yl]-1H-indol-7-yl}thiophene-2-sulfonamide]"
4,189 to 190,"CCN(c1cc(C)c(C)c2cc(-c3ncc(CO)s3)[nH]c12)S(=O)(=O)c1cccs1 [Example 254, N-Ethyl-N-{2-[5-(hydroxymethyl)-1,3-thiazol-2-yl]-4,5-dimethyl-1H-indol-7-yl}thiophene-2-sulfonamide]"
5,152 to 153,"CCN(c1ccc(C)c2cc(-c3ncc(C(C)O)s3)[nH]c12)S(=O)(=O)c1cccs1 (centres unmarked) [Example 249, N-Ethyl-N-{2-[5-(1-hydroxyethyl)-1,3-thiazol-2-yl]-4-methyl-1H-indol-7-yl}thiophene-2-sulfonamide]"
6,159 to 160,"Cc1ccc(N(C)S(=O)(=O)c2cccs2)c2[nH]c(-c3nccs3)cc12 [Example 177, N-Methyl-N-[4-methyl-2-(1,3-thiazol-2-yl)-1H-indol-7-yl]thiophene-2-sulfonamide]"
7,148 to 149,"CCOC(=O)c1cc2c(C)ccc(N(CC)S(=O)(=O)c3cccs3)c2[nH]1 [Example 246, Ethyl 7-[ethyl(2-thienylsulfonyl)amino]-4-methyl-1H-indole-2-carboxylate]"
8,245 to 246,"CN(c1cc(OC(F)(F)F)cc2cc(C(=O)O)[nH]c12)S(=O)(=O)c1cccs1 [Example 167, 7-[Methyl(2-thienylsulfonyl)amino]-5-(trifluoromethoxy)-1H-indole-2-carboxylic acid]"
9,134 to 135,"CCOC(=O)c1cc2c(C)c(C)cc(N(CC)S(=O)(=O)c3cccs3)c2[nH]1 [Example 251, Ethyl 7-[ethyl(2-thienylsulfonyl)amino]-4,5-dimethyl-1H-indole-2-carboxylate]"
10,166 to 167,"CCN(c1ccc(C)c2cc(-c3ncc(CO)s3)[nH]c12)S(=O)(=O)c1cccs1 [Example 250, N-Ethyl-N-{2-[5-(hydroxymethyl)-1,3-thiazol-2-yl]-4-methyl-1H-indol-7-yl}thiophene-2-sulfonamide]"
11,184 to 185,"Cc1ccc(N(C)S(=O)(=O)c2cccs2)c2[nH]c(-c3ncc(CO)s3)cc12 [Example 245, N-{2-[5-(Hydroxymethyl)-1,3-thiazol-2-yl]-4-methyl-1H-indol-7-yl}-N-methylthiophene-2-sulfonamide]"
